These results are taken from patent US20240067651A1 (Biohaven Therapeutics Ltd., priority 2019, published 2024).

Series [1] can be described thus: Stability in Simulated Intestinal Fluid (SIF). The class given is in vitro ADME. Also on record: key: % parent compound remaining relative to 0-minute sample. Put shortly:
(§1)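 Percent of parent remaining relative to time zero was measured by LC-MS/MS over 0–60 min at 37 °C, 150 rpm. Test compound was 2 μg/mL final in pepsin-containing SGF, pH 1.2, or pancreatin-containing SIF, pH 6.8. Degradation half-life was derived from the log-linear decay where enough points allowed.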

Series [2] can be described thus: Caco-2 Permeability Assay. The class given is in vitro ADME, human. Conditions: human. Put shortly:
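Bidirectional transport at 37 °C for 90 min, 10 μM donor concentration, with or without Pgp inhibitor, across 21-day Caco-2 monolayers with TEER >600 […] in HEPES-buffered HBSS, pH 7.4. LC-MS/MS of donor and receiver samples gives Papp, B→A/A→B efflux ratio and mass recovery.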
(In general: Passage across Caco-2 layers is used to estimate intestinal permeability.)

A short description of series [3]: Plasma Stability. The class given is in vitro ADME, human. The method in brief:
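Parent compound quantified by LC-MS/MS after acetonitrile precipitation, reported as percent of control remaining (triplicate). Incubation: 1 hour, 37° C, fresh human plasma, compound at 1 μM.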

Series [4] in a line: Stability in Simulated Gastric Fluid (SGF). The format is in vitro ADME. Also on record: key: % parent compound remaining relative to 0-minute sample. Put shortly: as §1
Where [5] appears, read: % remaining at 1 h, SIF with pancreatin pH 6.8, 2 μg/mL, 37° C.
[6] abbreviates: Caco-2, pH 7.4, donor 10 μM, 90 minutes, 37° C., direction not given.
Setting [7] is: % remaining at 1 h, human plasma, 1 μM, 37° C.
The mark [8] stands for this setting: % remaining at 1 h, SGF with pepsin pH 1.2, 2 μg/mL, 37° C.
Where [9] appears, read: Caco-2, pH 7.4, Caco-2 monolayer.
Where [10] appears, read: bare number, unit or time not given.
The mark [11] stands for this setting: % remaining at 1 h in simulated intestinal fluid.
[12] abbreviates: % remaining at 1 h in human plasma.
Where [13] appears, read: % remaining at 1 h in simulated gastric fluid.

Molecules are shown by their SMILES.

For `CC(C)OCCn1c(=S)n2c(=O)c3c1ccn3COC(=O)C(C)(C)CCCCC(C)(C)C(=O)OC2` [Example 118, 5,5,10,10-Tetramethyl-16-[2-(propan-2-yloxy)ethyl]-15-sulfanylidene-3,12-dioxa-1,14,16-triazatricyclo[12.5.2.0^{17,20}]henicosa-17(20),18-diene-4,11,21-trione], the SIF in series [1] (setting [5]) is recorded as 76%. The apparent permeability (Papp) – broadly, the rate of passage across a membrane or cell layer, normalised by area and donor concentration – at 90 min, 10 µM in series [2] (setting [6]) was determined as 6.6 ×10⁻⁶ cm/s. Besides, the “human Plasma stability” value in series [3] (setting [7]) was 73%. Moreover, the SGF in series [4] (setting [8]) is given as 94%.

On to `CC(C)OCCn1c(SCOC(=O)OCCOCCNC(=O)OC(C)(C)C)nc(=O)c2[nH]ccc21` [Example 369, 2-{[{{[2-(2-{[(tert-butoxy)carbonyl]amino}ethoxy)eth-oxy]carbonyl}oxy)methyl]sulfanyl}-1-[2-(propan-2-yloxy)ethyl]-1H,4H,5H-pyrrolo[3,2-d]pyrimidin-4-one], for which, in series [1] (simulated intestinal fluid, remaining at 1 h), the SIF was 1% remaining. In series [2] (setting [9]), the Papp at 90 min, 10 µM is < 0.107 ×10⁻⁶ cm/s. Further, the “human Plasma stability” value in series [3] (human plasma, remaining at 1 h) came out at 1% remaining. In addition, the SGF in series [4] (simulated gastric fluid, remaining at 1 h) is 89% remaining.

For the compound `CC(C)OCCn1c(=S)[nH]c(=O)c2c1ccn2COC(=O)CCCCOC(=O)[C@@H](N)Cc1ccccc1.O=C(O)C(F)(F)F` [Example 340, trifluoroacetic acid {4-oxo-1-[2-(propan-2-yloxy)ethyl]-2-sulfanylidene-1H,2H,3H,4H,5H-pyrrolo[3,2-d]pyrimidin-5-yl}methyl 5-{[(2S)-2-amino-3-phenylpropanoyl]oxy}pentanoate], the SIF in series [1] (setting [10]) is 99. Also, the apparent permeability coefficient (Papp) at 90 min, 10 µM in series [2] (Caco-2, pH 7.4) amounted to 0.644 ×10⁻⁶ cm/s. Further, the “human Plasma stability” value in series [3] (% remaining @ 1 h) turned out to be 4% remaining. Moreover, in series [4] (setting [10]), the SGF is given as 100.

Turning to `CC(C)OCCn1c(=S)[nH]c(=O)c2c1ccn2COC(=O)CCNC(=O)[C@H](Cc1c[nH]c2ccccc12)NC(=O)OC(C)(C)C.O=C(O)C(F)(F)F` [Example 48], the SIF in series [1] (setting [11]) was 89% remaining. For the same compound, in series [2] (setting [9]), the apparent permeability (Papp) at 90 min, 10 µM stood at 5.93 ×10⁻⁶ cm/s. The “human Plasma stability” value in series [3] (setting [12]) amounted to 74% remaining. For the same compound, the SGF in series [4] (setting [13]) was 90% remaining.

`CC(C)OCCn1c(=S)[nH]c(=O)c2c1ccn2COC(=O)CCCCNC(=O)CN(C)C(=O)CN.O=C(O)C(F)(F)F` [Example 59]: in series [1] (setting [11]), the SIF is 98% remaining. The Papp at 90 min, 10 µM in series [2] (setting [9]) was < 0.254 ×10⁻⁶ cm/s. Besides, the “human Plasma stability” value in series [3] (setting [12]) worked out at 11% remaining. Further, in series [4] (setting [13]), the SGF is 95% remaining.

Take `CC(C)OCCn1c(=S)[nH]c(=O)c2c1ccn2COC(=O)CCCCNC(=O)CNC(=O)OC(C)(C)C` [Example 13]: in series [1] (setting [11]), the SIF was 94% remaining. In addition, in series [2] (setting [9]), the Papp at 90 min, 10 µM stood at 1.88 ×10⁻⁶ cm/s. For the same compound, the “human Plasma stability” value in series [3] (setting [12]) is reported as 1% remaining. In addition, in series [4] (setting [13]), the SGF was 96% remaining.

On to `CC(C)OCCn1c(=S)n(COC(=O)CNC(=O)OC(C)(C)C)c(=O)c2c1ccn2COC(=O)CNC(=O)OC(C)(C)C` [Example 283], for which the SIF in series [1] (simulated intestinal fluid, @ 1 h) is recorded as 1% @ 1 h. In series [2] (setting [9]), this compound had a Papp at 90 min, 10 µM of 5.78 ×10⁻⁶ cm/s. The “human Plasma stability” value in series [3] (human plasma, @ 1 h) is 26% @ 1 h. For the same compound, in series [4] (simulated gastric fluid, @ 1 h), the SGF is 82% @ 1 h.

Regarding `CC(=O)OCn1ccc2c1c(=O)[nH]c(=S)n2CCOC(C)C` [Example 159], the SIF in series [1] (% @ 1 h (remaining) in simulated intestinal fluid) is listed as 83% @ 1 h. For the same compound, the Papp at 90 min, 10 µM in series [2] (setting [9]) was 8.42 ×10⁻⁶ cm/s. Further, in series [3] (% @ 1 h (remaining) in human plasma), the “human Plasma stability” value is 0% @ 1 h. Also, the SGF in series [4] (% @ 1 h (remaining) in simulated gastric fluid) was 79% @ 1 h.

Take `COCCOCCOCC(=O)OCn1ccc2c1c(=O)[nH]c(=S)n2CCOC(C)C` [Example 87]: in series [1] (setting [5]), the SIF is listed as 28%. The compound further displayed an apparent permeability (Papp) at 90 min, 10 µM in series [2] (setting [6]) of 7.05 ×10⁻⁶ cm/s. Moreover, the “human Plasma stability” value in series [3] (setting [7]) is reported as 0%. Besides, in series [4] (setting [8]), the SGF was 97%.

For the compound `CC(C)OCCn1c(=S)[nH]c(=O)c2c1ccn2COC(=O)CCNC(=O)[C@@H](N)Cc1c[nH]c2ccccc12.O=C(O)C(F)(F)F` [Example 52], the SIF in series [1] (setting [11]) is 81% remaining. Besides, the Papp at 90 min, 10 µM in series [2] (setting [9]) worked out at 0.23 ×10⁻⁶ cm/s. In addition, the “human Plasma stability” value in series [3] (setting [12]) is listed as 61% remaining. Moreover, the SGF in series [4] (setting [13]) is on record as 95% remaining.
